According to patent US20180303807A1, “ANDROGEN RECEPTOR LIGANDS” (DUKE UNIVERSITY, priority 2015, published 2018):
Substitutions are numbered along the chain they refer to.

Tests used:
Assay type in all cases: cell-based
AR [1] = target: T1, AR (Homo sapiens, UniProt P10275); assay: Reporter gene assay, AR transcriptional (MMTV-Luc) in CV1 cells; conditions: pcDNA-AR + MMTV-Luc, 0.1 nM R1881 plus test compound, 24 hrs, read-out: B1 = AR transcriptional IC50 (μM) in CV1 cells
T1 construct: expressed in transfected cells; host or cells: CV1 cells
T1 sequence (P10275 1-920): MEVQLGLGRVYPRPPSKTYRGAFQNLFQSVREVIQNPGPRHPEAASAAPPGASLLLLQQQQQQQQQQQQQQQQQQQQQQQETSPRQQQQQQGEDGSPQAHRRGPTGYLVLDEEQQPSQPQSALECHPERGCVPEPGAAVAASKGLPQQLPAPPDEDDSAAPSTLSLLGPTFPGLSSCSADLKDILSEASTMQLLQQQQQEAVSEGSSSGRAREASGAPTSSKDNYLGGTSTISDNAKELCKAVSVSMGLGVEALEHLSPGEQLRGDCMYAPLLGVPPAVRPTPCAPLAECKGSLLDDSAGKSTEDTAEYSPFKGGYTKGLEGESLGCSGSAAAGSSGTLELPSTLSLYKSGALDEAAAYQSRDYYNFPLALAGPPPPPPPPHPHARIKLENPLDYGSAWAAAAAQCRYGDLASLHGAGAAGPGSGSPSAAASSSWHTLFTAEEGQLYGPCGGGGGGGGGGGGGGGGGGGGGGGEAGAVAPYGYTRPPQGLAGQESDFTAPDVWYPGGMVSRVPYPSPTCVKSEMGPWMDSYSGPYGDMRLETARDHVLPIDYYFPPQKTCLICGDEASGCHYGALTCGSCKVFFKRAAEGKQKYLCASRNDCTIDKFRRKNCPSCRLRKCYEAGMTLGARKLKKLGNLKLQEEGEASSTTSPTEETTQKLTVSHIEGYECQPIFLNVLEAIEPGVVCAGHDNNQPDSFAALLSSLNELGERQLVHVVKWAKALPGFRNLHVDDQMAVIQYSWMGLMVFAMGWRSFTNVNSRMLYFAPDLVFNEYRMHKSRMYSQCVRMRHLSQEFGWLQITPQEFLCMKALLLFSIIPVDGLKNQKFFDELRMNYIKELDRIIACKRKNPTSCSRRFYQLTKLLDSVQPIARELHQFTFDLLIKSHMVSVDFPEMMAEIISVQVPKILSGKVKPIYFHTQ
Method: (§1) Reporter Gene Assay (IC50 determination, Table 2, B1-B3). CV1 cells were seeded into 96-well cell culture plates and transfected with Lipofectin. For AR transcriptional assays, the DNA mixture consisted of pcDNA-AR, MMTV-Luc (androgen responsive reporter gene), and Renilla-Luc (for assessing transfection efficiency and toxicity). Following overnight incubation, cells were induced with hormone (0.1 nM R1881 (synthetic AR agonist) plus increasing concentrations of test compound) for 24 hrs. Cells were lysed and luciferase activity was quantified using Dual Luciferase Reagent (DLR). IC50 determination was assessed using GraphPad Prism software.

AR [2] = target: T2, AR (Homo sapiens, UniProt P10275, T878A); assay: In Cell Western AR degradation assay in LNCaP cells; conditions: 18 hrs, greater than 50% degradation at 10 μM (method says 20 μM)
T2 construct: endogenous in cells; host or cells: LNCaP cells
T2 sequence (P10275 1-920 T878A): T1 sequence (P10275 1-920) with T878A
Method: In Cell Western (AR degradation Assay, Table 2, B10). LNCaP cells were plated in 96-well clear bottom black plates (20K cells/well) in RPMI supplemented with 8% CFS. Following 48 hr incubation, cells were treated with hormone (20 μM test compound) for 18 hrs. Cells were fixed with formaldehyde (3.7%) and permeabilized using PBS (0.1% TRITON X-100). Cells were incubated with anti-AR antibody (N20, 1:2000), washed with PBS (0.1% Tween), and stained with 2nd antibody (Biotium CF770 goat anti-rabbit, 1:2000). AR protein expression was assessed using the LI-COR Odyssey imaging system. DRAQ5 (DNA stain, 1:10,000, Thermo Scientific) was used to normalize AR protein expression.
For B4-B7, scoring system is based on the relative AR target gene agonist/antagonist activity of test compounds when compared to benchmark compounds enzalutamide or bicalutamide. […] The lack of agonist activity is desirable for therapies intended to treat CRPC. For B4 and B6, a score of 1 indicates less agonism (highly desired activity) than benchmark compound enzalutamide, a score of 2 indicates equal agonism to enzalutamide (desirable), a score of 3 indicates agonism between enzalutamide and bicalutamide (less desirable activity), a score of 4 indicates equal agonism to bicalutamide (liability), and a score of 5 indicates higher agonism than bicalutamide (liability). For B5 and B7 a score of 1 indicates higher antagonist efficacy (highly desired activity) than benchmark compound enzalutamide, a score of 2 indicates equal antagonist efficacy to enzalutamide (desirable), a score of 3 indicates antagonist efficacy between enzalutamide and bicalutamide (less desirable activity), a score of 4 indicates antagonist efficacy equal to bicalutamide (liability), and a score of 5 indicates antagonist efficacy worse than bicalutamide (liability) For B9, Compounds that degrade AR (greater than 50% degradation at 10 μM) are indicated.

CV1 cells = assay: Toxicity of test compound in the CV1 reporter gene assay (Renilla-Luc)
Method: as §1

Row | SMILES | IC50 (AR [1]) [µM] | B9 = AR degradation in LNCaP cells (In-Cell Western) (AR [2]) | B2 = % Toxicity of test compound (20 μM) (CV1 cells) [%] | B3 = % Toxicity of test compound (60 μM) (CV1 cells) [%]
1 | CC1(C)CC(=O)C2=C(C1)Nc1ccc3ncccc3c1C2c1sccc1Br (stereo not shown) [Compound A62] | > 10 | Degrader (Compounds that degrade AR (greater than 50% degradation at 10 μM) are indicated) | – | –
2 | CC1(C)CC(=O)C2=C(C1)Nc1ccc3ncccc3c1C2c1c[nH]c2ccc(F)cc12 (stereo not shown) [Compound A68] | > 10 | Degrader (Compounds that degrade AR (greater than 50% degradation at 10 μM) are indicated) | – | –
3 | CC1(C)CC(=O)C2=C(C1)Nc1ccc3ncccc3c1C2c1ccc(Br)s1 (stereo not shown) [Compound A63] | 1.9 | Degrader (Compounds that degrade AR (greater than 50% degradation at 10 μM) are indicated) | – | –
4 | Cc1ccc(C2C3=C(CC(C)(C)CC3=O)Nc3ccc4ncccc4c32)s1 (racemic) [Compound A103, (±)-9,9-dimethyl-12-(5-methylthiophen-2-yl)-8,9,10,12-tetrahydrobenzo[b][4,7]phenanthrolin-11(7H)-one] | 0.3 | Degrader (Compounds that degrade AR (greater than 50% degradation at 10 μM) are indicated) | – | –
5 | Cn1ncc2ccc3c(c21)C(c1ccc(Br)s1)C1=C(CC(C)(C)CC1=O)N3 (stereo not shown) [Compound A113] | 5.1 | Degrader (Compounds that degrade AR (greater than 50% degradation at 10 μM) are indicated) | – | –
6 | CC1(C)CC(=O)C2=C(C1)Nc1ccc3ncccc3c1C2c1cccc(C(F)(F)F)c1 (stereo not shown) [Compound A70] | > 10 | Degrader (Compounds that degrade AR (greater than 50% degradation at 10 μM) are indicated) | – | –
7 | Cn1ncc2ccc3c(c21)C(c1ccc(F)c(F)c1)C1=C(CC(C)(C)CC1=O)N3 (stereo not shown) [Compound A78] | > 10 | Degrader (Compounds that degrade AR (greater than 50% degradation at 10 μM) are indicated) | – | –
8 | CC1(C)CC(=O)C2=C(C1)Nc1ccc3ncccc3c1C2c1ccccn1 (stereo not shown) [Compound A57, 9,9-dimethyl-12-(pyridin-2-yl)-8,9,10,12-tetrahydrobenzo[b][4,7]phenanthrolin-11(7H)-one] | > 10 | Degrader (Compounds that degrade AR (greater than 50% degradation at 10 μM) are indicated) | – | –
9 | CC1(C)CC(=O)C2=C(C1)Nc1ccc3nccnc3c1C2c1ccc(F)c(F)c1 (racemic) [Compound A83, (±)-12-(3,4-difluorophenyl)-9,9-dimethyl-8,9,10,12-tetrahydropyrazino[2,3-a]acridin-11(7H)-one] | 7.4 | Degrader (Compounds that degrade AR (greater than 50% degradation at 10 μM) are indicated) | – | –
10 | CC1(C)CC(=O)C2=C(C1)Nc1ccc3ncccc3c1C2c1ccc(C#N)c(F)c1 (stereo not shown) [Compound A72] | 7.7 | Degrader (Compounds that degrade AR (greater than 50% degradation at 10 μM) are indicated) | – | –
11 | CC1(C)CC(=O)C2=C(C1)Nc1ccc3ncccc3c1C2c1cc(Br)cs1 (stereo not shown) [Compound A61] | 1.8 | Degrader (Compounds that degrade AR (greater than 50% degradation at 10 μM) are indicated) | – | –
12 | CC1(C)CC(=O)C2=C(C1)Nc1ccc3ccccc3c1C2c1cc([N+](=O)[O-])c(O)cc1Cl (stereo not shown) [Compound A16] | > 10 | – | 0 | 0
13 | O=C1CCCC2=C1C(c1ccc(O)cc1)c1c(ccc3ccccc13)N2 (stereo not shown) [Compound A20] | > 10 | – | 0 | 0
14 | O=[N+]([O-])c1ccc(C2C3=C(CCCC3)Nc3ccc4ccccc4c32)cc1 (stereo not shown) [Compound A25] | > 10 | – | 23 | 42
15 | CC1(C)CC(=O)C2=C(C1)Nc1ccc3ccccc3c1C2c1ccc(-c2nnc(N)s2)cc1 (stereo not shown) [Compound A19] | > 10 | – | 0 | 87
16 | O=C1CCCC2=C1C(c1cccc([N+](=O)[O-])c1)c1c(ccc3ccccc13)N2 (stereo not shown) [Compound A21] | > 10 | – | 0 | 28
17 | O=C1CCCC2=C1C(c1ccc3c(c1)OCO3)c1c(ccc3ccccc13)N2 (stereo not shown) [Compound A15] | > 10 | – | 0 | 0
18 | CC1(C)CC(=O)C2=C(C1)Nc1ccc3ccccc3c1C2c1cccnc1 (stereo not shown) [Compound A13] | 12 | – | 0 | 78
19 | CC1(C)CC(=O)C2=C(C1)Nc1ccc3ccccc3c1C2c1c[nH]c2ccccc12 (stereo not shown) [Compound A14] | > 10 | – | 0 | 0
20 | O=C1CCCC2=C1C(c1ccco1)c1c(ccc3ccccc13)N2 (stereo not shown) [Compound A17] | > 10 | – | 0 | 36
21 | CC1(C)CC(=O)C2=C(C1)Nc1ccc3ncccc3c1C2c1ccc(Cl)c([N+](=O)[O-])c1 (stereo not shown) [Compound A5] | 3.3 | – | 24 | 68
22 | Cc1n[nH]c2c1C(c1ccc([N+](=O)[O-])cc1)C1=C(N2)C(C)(C)CCC1=O (stereo not shown) [Compound A23] | > 10 | – | 0 | 0
